Laboratory results from ChEMBL document CHEMBL1201862, “PubChem BioAssay data set” (2004).
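Briefly, cells in 96-well plates were exposed to five compound concentrations for 48 h, and endpoints were estimated by linear interpolation. GI50: concentration for 50% inhibition of growth.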 Activity calls are given as the source filed them. Rule as the data show it: active = GI50 up to about 1.1 µM and inactive = higher.

Key:
Test in all cases: growth of human tumour cells (NCI), 48 h
SF-295 = tested on: SF-295
UACC-257 = tested on: UACC-257
SK-MEL-28 = tested on: SK-MEL-28
HCT-116 = tested on: HCT-116
NCI-H460 = tested on: NCI-H460
KM-20L2 = tested on: KM-20L2
HCC 2998 = tested on: HCC 2998
HOP-62 = tested on: HOP-62
RPMI-8226 = tested on: RPMI-8226
786-0 = tested on: 786-0
OVCAR-3 = tested on: OVCAR-3
HOP-92 = tested on: HOP-92
SK-MEL-2 = tested on: SK-MEL-2
DU-145 = tested on: DU-145
CAKI-1 = tested on: CAKI-1
NCI/ADR-RES = tested on: NCI/ADR-RES
PC-3 = tested on: PC-3
COLO 205 = tested on: COLO 205
MDA-MB-231 = tested on: MDA-MB-231
SK-MEL-5 = tested on: SK-MEL-5

SMILES | GI50 (SF-295) | GI50 (UACC-257) | GI50 (SK-MEL-28) | GI50 (HCT-116) | GI50 (NCI-H460) | GI50 (KM-20L2) | GI50 (HCC 2998) | GI50 (HOP-62) | GI50 (RPMI-8226) | GI50 (786-0) | GI50 (OVCAR-3) | GI50 (HOP-92) | GI50 (SK-MEL-2) | GI50 (DU-145) | GI50 (CAKI-1) | GI50 (NCI/ADR-RES) | GI50 (PC-3) | GI50 (COLO 205) | GI50 (MDA-MB-231) | GI50 (SK-MEL-5)
Cc1cc(C)nc(NS(=O)(=O)c2ccc(Nc3c4ccccc4nc4c(C(=O)Nc5ccc(S(=O)(=O)Nc6cc(C)on6)cc5)ccc(Cl)c34)cc2)n1 | 20.7 µM (inactive) | 28.9 µM (inactive) | 27.7 µM (inactive) | 17.7 µM (inactive) | 22 µM (inactive) | 19.5 µM (inactive) | 17.3 µM (inactive) | 21.5 µM (inactive) | 20.6 µM (inactive) | 17.9 µM (inactive) | 17 µM (inactive) | – | – | – | – | – | – | – | – | –
Cn1c([N+](=O)[O-])cnc1CN1CCN(CCO)CC1 | > 100 µM (inactive) | > 100 µM (inactive) | > 100 µM (inactive) | > 100 µM (inactive) | > 100 µM (inactive) | – | > 100 µM (inactive) | > 100 µM (inactive) | > 100 µM (inactive) | > 100 µM (inactive) | > 100 µM (inactive) | > 100 µM (inactive) | > 100 µM (inactive) | > 100 µM (inactive) | > 100 µM (inactive) | > 100 µM (inactive) | > 100 µM (inactive) | > 100 µM (inactive) | > 100 µM (inactive) | > 100 µM (inactive)
CCOC(=O)c1[nH]c2cccc3c2c1CC[C@H](NC(=O)C(F)(F)F)C3=O | 22.3 µM (inactive) | 76.6 µM (inactive) | < 0.01 µM (active) | 35.6 µM (inactive) | 53.6 µM (inactive) | – | > 100 µM (inactive) | 24 µM (inactive) | > 100 µM (inactive) | 31.2 µM (inactive) | > 100 µM (inactive) | 22.6 µM (inactive) | 20 µM (inactive) | > 100 µM (inactive) | 13.9 µM (inactive) | 54 µM (inactive) | 64.6 µM (inactive) | > 100 µM (inactive) | > 100 µM (inactive) | 22.5 µM (inactive)
c1ccc2c(c1)cc1ccc3cccc4ccc2c1c34 | > 100 µM (inactive) | > 100 µM (inactive) | > 100 µM (inactive) | > 100 µM (inactive) | > 100 µM (inactive) | – | > 100 µM (inactive) | > 100 µM (inactive) | > 100 µM (inactive) | > 100 µM (inactive) | > 100 µM (inactive) | > 100 µM (inactive) | > 100 µM (inactive) | > 100 µM (inactive) | > 100 µM (inactive) | > 100 µM (inactive) | > 100 µM (inactive) | > 100 µM (inactive) | > 100 µM (inactive) | > 100 µM (inactive)
CCCC#CC(O)(C(=O)OC1CCN(C)CC1)C1CCCCC1 (stereo not drawn) | > 100 µM (inactive) | 46.6 µM (inactive) | > 100 µM (inactive) | > 100 µM (inactive) | > 100 µM (inactive) | – | > 100 µM (inactive) | 52 µM (inactive) | > 100 µM (inactive) | > 100 µM (inactive) | > 100 µM (inactive) | 85.7 µM (inactive) | > 100 µM (inactive) | > 100 µM (inactive) | > 100 µM (inactive) | > 100 µM (inactive) | 48.3 µM (inactive) | 94.6 µM (inactive) | > 100 µM (inactive) | 38.9 µM (inactive)
Cc1c(C)c(C)c(CSC(=N)N)c(C)c1C | 7.52 µM (inactive) | 14.2 µM (inactive) | 15.4 µM (inactive) | 12.7 µM (inactive) | 13.2 µM (inactive) | – | 14.7 µM (inactive) | 15.5 µM (inactive) | 12.6 µM (inactive) | 15.9 µM (inactive) | 16.5 µM (inactive) | 14 µM (inactive) | 14.6 µM (inactive) | 16.9 µM (inactive) | 11.5 µM (inactive) | 15.2 µM (inactive) | 12.2 µM (inactive) | 14.9 µM (inactive) | 14.1 µM (inactive) | 13.7 µM (inactive)
c1ccc(COCC23CCN(Cc4ccccc4)C(CC(OCc4ccccc4)C2)S3)cc1 (stereo not drawn) | 87.1 µM (inactive) | 45.3 µM (inactive) | > 100 µM (inactive) | 42.7 µM (inactive) | 46.7 µM (inactive) | – | 58.5 µM (inactive) | 65.9 µM (inactive) | 35.2 µM (inactive) | > 100 µM (inactive) | 97.5 µM (inactive) | 20.3 µM (inactive) | 37.2 µM (inactive) | > 100 µM (inactive) | 77.1 µM (inactive) | 83 µM (inactive) | 31.8 µM (inactive) | 35.2 µM (inactive) | 66.4 µM (inactive) | 15.8 µM (inactive)
Cn1cc(-c2n[nH]c(-c3ccc(Cl)cc3)nc2=O)c2ccccc21 | 1.43 µM (inactive) | 7.53 µM (inactive) | > 71.1 µM (inactive) | 2.12 µM (inactive) | 2.33 µM (inactive) | – | 1.57 µM (inactive) | 5.36 µM (inactive) | 3.23 µM (inactive) | 3.38 µM (inactive) | 0.979 µM (active) | 12.3 µM (inactive) | 3.4 µM (inactive) | 3.2 µM (inactive) | 1.36 µM (inactive) | 1.69 µM (inactive) | 2.3 µM (inactive) | 2.07 µM (inactive) | 15.5 µM (inactive) | 1.35 µM (inactive)
NC(CCCNCc1ccccc1)C(=O)O (stereo not drawn) | > 10 µM (inactive) | > 100 µM (inactive) | > 100 µM (inactive) | > 100 µM (inactive) | > 100 µM (inactive) | > 100 µM (inactive) | – | > 100 µM (inactive) | > 100 µM (inactive) | > 100 µM (inactive) | > 100 µM (inactive) | > 100 µM (inactive) | > 100 µM (inactive) | – | > 100 µM (inactive) | – | – | > 100 µM (inactive) | – | > 100 µM (inactive)
O=c1c(C(c2ccc(/C=C/c3ccccc3)cc2)c2c(O)oc3cc(O)ccc3c2=O)c(O)oc2cc(O)ccc12 | > 100 µM (inactive) | > 100 µM (inactive) | 11.3 µM (inactive) | > 100 µM (inactive) | > 100 µM (inactive) | – | > 100 µM (inactive) | > 100 µM (inactive) | 39.6 µM (inactive) | > 100 µM (inactive) | > 100 µM (inactive) | 75.2 µM (inactive) | > 100 µM (inactive) | > 100 µM (inactive) | 55.3 µM (inactive) | > 100 µM (inactive) | > 100 µM (inactive) | > 100 µM (inactive) | > 100 µM (inactive) | 21.8 µM (inactive)
CC(C)(C)n1c(=O)n2n(c1=O)Cc1cccc3cccc(c13)C2 | 17 µM (inactive) | 22.6 µM (inactive) | 21.7 µM (inactive) | 15.1 µM (inactive) | 10.7 µM (inactive) | – | 21.9 µM (inactive) | 14 µM (inactive) | 14 µM (inactive) | 19.5 µM (inactive) | 15.4 µM (inactive) | 28.1 µM (inactive) | 17.9 µM (inactive) | 35.5 µM (inactive) | 15.1 µM (inactive) | 14.4 µM (inactive) | 13 µM (inactive) | 29.5 µM (inactive) | 32.6 µM (inactive) | 19.5 µM (inactive)
CC(C)(C)c1cc(OCc2nnc3sc(-c4ccc(Cl)cc4)nn23)c(Cl)cc1OCc1nnc2sc(-c3ccc(Cl)cc3)nn12 | 3.3 µM (inactive) | 11.5 µM (inactive) | 3.89 µM (inactive) | 3.54 µM (inactive) | 3.06 µM (inactive) | – | 2.34 µM (inactive) | 5.87 µM (inactive) | 3.56 µM (inactive) | 3.97 µM (inactive) | 2.47 µM (inactive) | 0.895 µM (active) | 7.91 µM (inactive) | 4.19 µM (inactive) | 2.3 µM (inactive) | 2.01 µM (inactive) | 4.62 µM (inactive) | 7.46 µM (inactive) | 8.15 µM (inactive) | 0.726 µM (active)
CC(=O)OC1CCn2c1nc1c2C(=O)C=C(N2CC2)C1=O (stereo not drawn) | 1.81 µM (inactive) | 0.292 µM (active) | 0.0314 µM (active) | 0.153 µM (active) | 1.15 µM (inactive) | – | 1.45 µM (inactive) | 2.11 µM (inactive) | 0.251 µM (active) | 0.108 µM (active) | 0.215 µM (active) | 0.378 µM (active) | 0.2 µM (active) | 3.31 µM (inactive) | 0.032 µM (active) | 0.402 µM (active) | 0.931 µM (active) | 0.0697 µM (active) | 1.91 µM (inactive) | 0.142 µM (active)
COc1ccc2nc3cc(Cl)ccc3c(NCCNC(=O)Cn3c(=O)n(C)c(=O)c4c3nc3c(c(=O)n(C)c(=O)n3C)[n+]4[O-])c2c1 | 44.8 µM (inactive) | 32.7 µM (inactive) | > 31.6 µM (inactive) | 35.2 µM (inactive) | 44.7 µM (inactive) | – | 30.2 µM (inactive) | 20.7 µM (inactive) | > 80.9 µM (inactive) | 43.1 µM (inactive) | 39.5 µM (inactive) | 28.1 µM (inactive) | 35.2 µM (inactive) | > 84.3 µM (inactive) | > 80 µM (inactive) | 38.8 µM (inactive) | 38.4 µM (inactive) | > 67.1 µM (inactive) | 50.7 µM (inactive) | 58.2 µM (inactive)
CC1CC2OC(=O)C(C)C2CC2(C)C(OC3OC(CO)C(O)C(O)C3O)OCCC12 (stereo not drawn) | > 100 µM (inactive) | > 100 µM (inactive) | > 100 µM (inactive) | > 100 µM (inactive) | > 100 µM (inactive) | – | > 100 µM (inactive) | > 100 µM (inactive) | > 100 µM (inactive) | > 100 µM (inactive) | > 100 µM (inactive) | > 100 µM (inactive) | > 100 µM (inactive) | > 100 µM (inactive) | > 100 µM (inactive) | > 100 µM (inactive) | > 100 µM (inactive) | > 100 µM (inactive) | > 100 µM (inactive) | > 100 µM (inactive)
